# Experimental data as given in publication PMC3705751 (Evidence-based Complementary and Alternative Medicine : eCAM, 2013).
# Like-named read-outs stand apart in the source and are kept apart here.
# Columns and labels:
# [1] = biological target: NA of PR8 H1N1 influenza A virus (Influenza A virus, UniProt P03468); experiment: NA enzymatic activity inhibition, fluorometric MUNANA assay; format: biochemical, Influenza A/Puerto Rico/8/34 (H1N1)
# Text: Pandemic influenza A/Taiwan/CMUH/2009 (H1N1) (pandemic 2009 H1N1 virus), seasonal influenza A/Taiwan//CMUH/2007 (H1N1), 2009 (H1N1), and 2009 (H3N2) (seasonal 2007 H1N1, 2009 H1N1, and 2009 H3N2 influenza A viruses) were isolated in the clinical virology laboratory of China Medical University Hospital, Taiwan. Influenza A/Puerto Rico/8/34 (H1N1) (PR8 H1N1 virus) was kindly provided by Dr. Wei-Li Hsu (Institute of Microbiology and Public Health, National Chung-Hsing University). HA subtype of all influenza A viruses used was confirmed by RT-PCR or real-time RT-PCR with specific primers (see Supplementary Table 1 in the Supplementary Material available online at http://dx.doi.org/10.1155/2013/750803).
# Fluorometric substrate 2′-(4-methylumbelliferyl)-α-D-N-acetylneuraminic acid (MUNANA; Sigma) was used to determine NA activity as described in a prior report. To determine NA activity of pandemic 2009 H1N1 and seasonal 2007 H1N1 viruses, serial 10-fold dilution of viruses (10^6 PFU/mL) was added to the wells of a 96-well plate, mixed with MUNANA solution at final concentration of 300 μM, and then incubated for 1 h at 37°C. Relative NA enzymatic activity was determined as the fluorescent intensity at a 360 nm excitation and a 460 nm emission wavelength (Multidetection Fluorescence-Luminescence Microplate Reader). […] Concentration of each extract or flavonoid showing 50% inhibitory effect (IC50) compared to the control with no inhibitor was determined by computer program (provided by John Spouge, National Institutes of Health).
# [2] = test system: seasonal 2007 H1N1 influenza A virus; experiment: microbe, parasite or virus in culture; format: cell-based; conditions: read-out: Plaque inhibition IC50 values, Seasonal 2007 H1N1
# [3] = test system: pandemic 2009 H1N1 influenza A virus; experiment: Plaque inhibition assay in MDCK cells; format: cell-based, Pandemic influenza A/Taiwan/CMUH/2009 (H1N1); conditions: 72 h, read-out: Plaque inhibition IC50 values, Pandemic 2009 H1N1
# [4] = Cytotoxic assay (MTT); conditions: dog, MDCK cells
# [5] = in vitro; conditions: dog
# [6] = test system: MDCK cells
# [7] = flavonoids, MUNANA substrate, read-out: NA inhibition IC50 values, PR8 H1N1
# Sequence of NA of PR8 H1N1 influenza A virus (P03468 whole entry): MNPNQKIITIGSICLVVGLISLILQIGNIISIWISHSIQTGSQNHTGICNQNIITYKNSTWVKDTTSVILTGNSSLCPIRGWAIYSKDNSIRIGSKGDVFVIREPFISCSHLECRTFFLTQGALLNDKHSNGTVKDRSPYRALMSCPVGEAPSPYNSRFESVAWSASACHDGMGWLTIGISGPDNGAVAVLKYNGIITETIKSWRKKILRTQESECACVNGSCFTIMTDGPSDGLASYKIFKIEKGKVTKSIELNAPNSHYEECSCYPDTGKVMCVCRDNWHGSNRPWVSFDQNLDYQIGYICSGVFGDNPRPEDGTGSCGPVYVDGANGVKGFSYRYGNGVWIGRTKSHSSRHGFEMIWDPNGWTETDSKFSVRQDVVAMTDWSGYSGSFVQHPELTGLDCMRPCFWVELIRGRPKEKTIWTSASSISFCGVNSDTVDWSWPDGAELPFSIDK
molecule,measurement,setting,value
O=c1cc(-c2ccc(O)cc2)oc2cc(O)cc(O)c12 [Apigenin],IC50,[1],81.3 µM
same,IC50,"[2]; flavonoids, MDCK cells, 3 days",119.61 ± 0.032 µM
same,IC50,[3],94.16 ± 0.047 µM
same,CC50 at 48 h,[4],218.34 ± 0.11 µM
O=c1cc(-c2ccccc2)oc2cc(O)c(O)c(O)c12 [Baicalein],IC50,[1],0.181 µM
same,IC50,"[2]; Influenza A virus, MDCK, 72 h",0.018 µM
same,IC50,[3],0.02 µM
same,CC50 at 48 h,[4],0.045 ± 0.088 µM
O=C(O)[C@H]1O[C@@H](Oc2cc3oc(-c4ccccc4)cc(=O)c3c(O)c2O)[C@H](O)[C@@H](O)[C@@H]1O [Baicalin],IC50,[1]; [7],2.75 µM
same,IC50,"[2]; Influenza A virus, MDCK, 72 h",> 0.01 µM
same,IC50,[3],> 0.01 µM
same,CC50,[5],0.015 µM
O=c1cc(-c2ccccc2)oc2cc(O)cc(O)c12 [Chrysin],IC50,[1]; [7],132 µM
same,IC50,"[2]; Influenza A virus, MDCK, 72 h",> 200 µM
same,IC50,[3],> 200 µM
same,CC50,[5],266.66 ± 0.077 µM
Chloroform,CC50 MDCK cells,[6],829.77 ± 0.009 µg/mL
MeOH,CC50 MDCK cells,[6],923.12 ± 0.017 µg/mL
